In patent US20160039880A1 (priority 2012, published 2016):

Legend:
[1] = target: Human recombinant cyclophilin A (Cyp A) (Homo sapiens, UniProt P62937);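 further: cis to trans isomerization of SUC-AAPF-pNA by 2 nM enzyme, read as absorbance at 330 nm over 300 s at 10 °C, catalytic rate corrected for uncatalyzed background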
Calcineurin = Calcineurin (Homo sapiens, UniProt P62937+P63098+Q08209)
[2] = Water Solubility Assay (measured in pH 7.8 buffer); assay type: physicochemical; conditions: pH 7.8;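 further: precipitation onset detected as rise in absorbance at 650 nm across increasing concentrations, after shaking for 18 h, blank wells receiving DMSO only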

Human recombinant cyclophilin A (Cyp A), sequence (P62937 whole entry): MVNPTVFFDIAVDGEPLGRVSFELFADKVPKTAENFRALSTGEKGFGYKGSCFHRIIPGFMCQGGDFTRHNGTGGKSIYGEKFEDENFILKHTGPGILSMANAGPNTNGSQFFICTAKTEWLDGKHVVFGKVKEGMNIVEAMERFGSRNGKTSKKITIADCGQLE
Calcineurin, sequence (P63098 whole entry, other chains not shown): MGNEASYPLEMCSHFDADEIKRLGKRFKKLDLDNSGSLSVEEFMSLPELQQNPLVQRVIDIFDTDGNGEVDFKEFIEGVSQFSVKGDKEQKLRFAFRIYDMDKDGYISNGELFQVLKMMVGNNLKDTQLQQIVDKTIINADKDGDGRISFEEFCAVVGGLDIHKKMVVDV
Calcineurin, sequence (P62937 whole entry, other chains not shown): as the sequence (P62937 whole entry) above

SMILES | Ki [1] [nM] | immunosuppressive potential (Calcineurin) | Water Solubility Assay [2] [µM]
CC[C@H]1NC(=O)[C@@H]([C@H](O)[C@H](C)CCN2CC(F)(F)C2)N(C)C(=O)[C@@H](C(C)C)N(C)C(=O)[C@@H](CC(C)C)N(C)C(=O)[C@@H](CC(C)C)N(C)C(=O)[C@H](C)NC(=O)[C@@H](C)NC(=O)[C@@H](CC(C)C)N(C)C(=O)[C@@H](C(C)C)NC(=O)[C@H](CC(C)C)N(C)C(=O)[C@@H](C)N(C)C1=O [Compound EM, [(3R,4R,5S)-(3,3-Difluoro-azetidin-1-yl)-4-hydroxy-3-methyl-5-(methylamino)-1-hexanoic acid]^1[(R)-methyl-Sar]^3 cyclosporin A] | 9.5 | more immunosuppressive potential than others | 75 to 100
CCC1NC(=O)C(C(O)C(C)CCN(CCC(F)(F)F)CCC(F)(F)F)N(C)C(=O)C(C(C)C)N(C)C(=O)C(CC(C)C)N(C)C(=O)C(CC(C)C)N(C)C(=O)C(C)NC(=O)C(C)NC(=O)C(CC(C)C)N(C)C(=O)C(C(C)C)NC(=O)C(CC(C)C)N(C)C(=O)C(C)N(C)C1=O [Compound EQ, (3R,4R,5S)-1-[Bis-(3,3,3-trifluoro-propyl)-amino]-[(4-Hydroxy-3-methyl-5-(methylamino)-hexanoic acid]^1[(R)-methyl-Sar]^3 cyclosporin A] | 4.6 | more immunosuppressive potential than others | 25 to 50
CC[C@H]1NC(=O)[C@@H]([C@H](O)[C@H](C)CCN2CCC(F)(F)C2)N(C)C(=O)[C@@H](C(C)C)N(C)C(=O)[C@@H](CC(C)C)N(C)C(=O)[C@@H](CC(C)C)N(C)C(=O)[C@H](C)NC(=O)[C@@H](C)NC(=O)[C@@H](CC(C)C)N(C)C(=O)[C@@H](C(C)C)NC(=O)[C@H](CC(C)C)N(C)C(=O)[C@@H](C)N(C)C1=O [Compound EL, [(3R,4R,5S)-(3,3-Difluoro-pyrrolidin-1-yl)-4-Hydroxy-3-methyl-5-(methylamino)-1-hexanoic acid]^1[(R)-methyl-Sar]^3 cyclosporin A] | 10 | more immunosuppressive potential than others | 75 to 100
